Measurements from US8420621B2, “Methods of using gamma cyclodextrin to control blood glucose and insulin secretion” (Abbott Laboratories, priority 2004, dated 2013).

What was measured:
healthy adult subjects [1] = assay: Clinical study: breath hydrogen test for carbohydrate malabsorption; type: in vivo, human; conditions: 3 hours after 50 g oral; p=0.01
Method: Upon completion of baseline samples, the subject proceeded to the study site and consumed 16 fl oz of one of the two test beverages in no more than 10 minutes. After consumption of the study beverage, the subject resumed fasting. Time 0 was designated as the time at which the subject began drinking the study beverage. Additional venous blood samples and capillary plasma glucose finger sticks were collected at 15, 30, 45, 60, 90, 120, 150, and 180 […] minutes after the start of the study beverage. Additional breath samples were collected at 1, 2, 3, 4, 5, 6, 7, and 8 (±10 minutes) hours postprandially. Subjects were limited to the consumption of 8 fl oz of water during this three hour blood collection period. Approximately 10 mL of normal saline was injected into the vein after each blood draw in order to keep the line open and to replace the fluid lost from the blood collected.
After the 180-minute blood and breath samples were collected, the subject was allowed to leave the study site and collect the remaining breath samples (hours 4-8) on their own. During the remainder of the breath collection period, the subject was instructed to refrain from sleep and exercise. Subjects were to remain fasting with the exception of an optional one or two 8 fl oz cans of Ensure® Plus. […]
Breath hydrogen was analyzed to determine if the carbohydrate in the study product had been malabsorbed. […]

healthy adult subjects [2] = assay: Clinical study: postprandial plasma glucose response; type: in vivo, human
Source text: Thirty-two healthy adult subjects received two treatments in a double-masked, randomized, crossover design. The two treatments consisted of 50 g challenges of either maltodextrin or gamma-cyclodextrin. Blood samples were collected over a three-hour period, and breath samples collected over an eight-hour period following consumption of each carbohydrate. […] This study utilized a randomized, double-masked, crossover design, with a 4-14 day washout period between treatments. Before completing the two treatment visits, each subject completed one pre-study gastrointestinal tolerance test visit. Randomization was carried out by sealed envelopes stating which pre-study treatment was to be received, as well as in which sequence the two treatment visits were to be carried out. These envelopes were prepared from randomization schedules generated at Ross Products Division of Abbott Laboratories, Two product coordinators assigned an envelope from the top of the pile to each subject in the order that they passed all screening criteria and were given subject numbers. Besides carrying out randomization, the product coordinators were responsible for study product inventory and serving the appropriate product to subjects at each visit so that other study staff could not become aware of the study product identity. […] At each of the two treatment visits, subjects received 16 fl oz of a study product containing either 50 g of maltodextrin or 50 g of gamma-cyclodextrin. All beverages were served cold in styrofoam cups with lids and straws, labeled only with the subject number, subject initials and visit number, with the intention of hiding any slight differences in appearance that could be visible to study staff or subjects. On two separate treatment visits, subjects received, in random order, one of the two study beverages. Three days prior to each treatment visit, subjects recorded their food and beverage intake in a food diary. Subjects were required to consume ≧150 g of carbohydrate each day for three days prior to each treatment. Subjects were not to engage in vigorous exercise for 24 hours before each treatment. Subjects consumed an evening low residue Ensure® meal and completed a 10-16 hour overnight fast as detailed previously. […] A breath sample was collected for measurement of breath hydrogen. […] Plasma glucose was measured using an AccuChek Advantage Blood Glucose Monitoring System® (Roche Diagnostics, Indianapolis, Ind.). […] Positive incremental area under the plasma glucose response curve for two hours after each treatment will be calculated using the method of Wolever et al, The glycemic index: methodology and clinical implications, Amer. […]

OC[C@H]1O[C@@H]2O[C@H]3[C@H](O)[C@@H](O)[C@@H](O[C@H]4[C@H](O)[C@@H](O)[C@@H](O[C@H]5[C@H](O)[C@@H](O)[C@@H](O[C@H]6[C@H](O)[C@@H](O)[C@@H](O[C@H]7[C@H](O)[C@@H](O)[C@@H](O[C@H]8[C@H](O)[C@@H](O)[C@@H](O[C@H]9[C@H](O)[C@@H](O)[C@@H](O[C@H]1[C@H](O)[C@H]2O)O[C@@H]9CO)O[C@@H]8CO)O[C@@H]7CO)O[C@@H]6CO)O[C@@H]5CO)O[C@@H]4CO)O[C@@H]3CO [Gamma-Cyclodextrin, Gamma-cyclodextrin]
Breath hydrogen compared to maltodextrin (healthy adult subjects [1]): significantly higher
Plasma glucose area under the curve (AUC), effect versus maltodextrin (healthy adult subjects [2]; 50 g oral challenge): significantly reduced
Adjusted peak glucose, difference between treatments (healthy adult subjects [2]; 50 g oral, crossover analysis p<0.0001): significant difference
Positive incremental 120 min plasma glucose AUC (healthy adult subjects [2]; 50 g oral, mean±SEM, n=31): 133.2±16.5
Relative glycemic response compared with maltodextrin (healthy adult subjects [2]; baseline to 120 min, 50 g oral): 55%
